Assay [1] deals with pERK1/2 (Thr202/Tyr204) in Miapaca2 cells. Put plainly: Assay of intracellular pERK1/2 (Thr202/Tyr204) phosphorylation. It counts as cell-based. The note with it: pERK1/2 (Thr202/Tyr204) HTRF. Summed up: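 Miapaca2 cells treated 2 h at 37 °C with compound (3-fold series; final DMSO 0.5%), then lysed 1 h. pERK1/2 (Thr202/Tyr204) detected by HTRF (665/615 nm ratio) after 2 h at 25 °C; normalized to cell-free lysis buffer and DMSO-treated cell controls; IC50 by four-parameter fit.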
On the technique in general: In TR-FRET formats the signal depends on donor and acceptor labels being close together.

Assay [2] deals with Miapaca2 3D spheroids. As to the kind of experiment: Assay of cell proliferation on Miapaca2 3D spheroids. It counts as cell-based. The note with it: CellTiter-Glo 3D, 5 days treatment. The essentials:
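Miapaca2 spheroids (300 cells/well, formed by day 2) exposed 5 days at 37 °C to compound in 3-fold dilution series, 0.1% DMSO final. Viability by CellTiter-Glo 3D luminescence; survival % relative to day-2 and day-7 DMSO controls, IC50 from four-parameter logistic fit.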
(In general: ATP-based viability assays read luminescence as a measure of living cells.)

In assay [3] the target is Human full-length SHP2 recombinant protein (Homo sapiens (Human), UniProt Q06124). As to the kind of experiment: Assay of full-length SHP2 phosphatase activity. It is filed as biochemical. The note with it: DiFMUP substrate, with activating peptide. Summed up:
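Full-length human SHP2 preincubated 30 min at RT with activating peptide and compound (1% DMSO final). DiFMUP substrate added, reaction 60 min at 25 °C in dark. Fluorescence at ex 355/em 460 nm; IC50 from 4-parameter fit against enzyme-free and vehicle controls.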

[4] abbreviates: Homo sapiens, MIA PaCa-2, 120 h.

Human full-length SHP2 recombinant protein, sequence (Q06124 whole entry): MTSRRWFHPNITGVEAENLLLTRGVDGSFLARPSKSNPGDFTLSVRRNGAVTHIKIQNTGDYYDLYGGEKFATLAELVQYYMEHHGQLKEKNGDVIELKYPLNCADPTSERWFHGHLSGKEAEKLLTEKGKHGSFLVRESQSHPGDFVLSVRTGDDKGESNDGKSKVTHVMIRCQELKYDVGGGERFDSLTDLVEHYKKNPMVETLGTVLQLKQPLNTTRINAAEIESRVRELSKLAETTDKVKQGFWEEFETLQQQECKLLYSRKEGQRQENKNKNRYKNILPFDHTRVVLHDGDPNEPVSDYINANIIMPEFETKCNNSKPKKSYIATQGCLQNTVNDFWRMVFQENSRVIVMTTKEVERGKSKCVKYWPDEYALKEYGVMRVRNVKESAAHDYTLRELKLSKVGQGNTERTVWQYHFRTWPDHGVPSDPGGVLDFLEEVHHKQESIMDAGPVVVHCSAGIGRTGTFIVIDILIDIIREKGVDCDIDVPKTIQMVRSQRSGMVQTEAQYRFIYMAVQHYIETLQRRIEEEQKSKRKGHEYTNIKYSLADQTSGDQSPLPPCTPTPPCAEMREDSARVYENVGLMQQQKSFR

The term IC50 denotes the point on the concentration scale where inhibition reaches its midpoint. In the case of `CNC(=O)C#Cc1ccc2c(c1)[C@@H](N)C1(CCN(c3cc(=O)n(-c4cccc(Cl)c4Cl)c(C)n3)CC1)C2` [Compound 173], the IC50 in assay [1] (Homo sapiens, MIA PaCa-2, 2 h) is 18 nM; in assay [2] (setting [4]) it was 24 nM; in assay [3], 1 nM.
In the same order, the values of `CNC(=O)C#Cc1ccc2c(c1)[C@@H](N)C1(CCN(c3cnc(Sc4cccnc4Cl)c(N)n3)CC1)C2` [Compound 248] are 2 nM, 0.4 nM and less than 0.5 nM.
In the case of `Nc1nccc(Sc2cnc(N3CCC4(CC3)Cc3ccc(C#CC(=O)NC5CC5)cc3[C@H]4N)cn2)c1Cl` [Compound 296], the IC50 turned out to be 2 nM in assay [1] (Homo sapiens, MIA PaCa-2, 2 h); 0.7 nM in assay [2] (setting [4]); 0.3 nM in assay [3].
For the compound `C#Cc1ccc2c(c1)[C@@H](N)C1(CCN(c3cc(=O)n(-c4ccc(C#N)c(Cl)c4Cl)c(C)n3)CC1)C2` [Compound 184], the IC50 in assay [1] (2 hours) worked out at 67 nM; in assay [2] (setting [4]), 96 nM; in assay [3], 3 nM.
On to `C#Cc1ccc2c(c1)[C@@H](N)C1(CCN(c3ncc(Sc4ccnc(N)c4Cl)c(=O)n3CC)CC1)C2` [Compound 294], for which the IC50 worked out at 18 nM in assay [1] (Homo sapiens, MIA PaCa-2, 2 h); 9 nM in assay [2] (setting [4]); 1 nM in assay [3].
In the case of `CNC(=O)C#Cc1ccc2c(c1)[C@@H](N)C1(CCN(c3ncc(Sc4ccnc(N)c4Cl)nc3C)CC1)O2` [Compound 266], the concentration for half-maximal inhibition (IC50) in assay [1] (Homo sapiens, MIA PaCa-2, 2 h) came out at 26 nM; in assay [2] (setting [4]) it was 10 nM; in assay [3], 5 nM.
Consider `CN(C)C(=O)C#Cc1ccc2c(c1)[C@@H](N)C1(CCN(c3cnc(Sc4ccnc(N)c4Cl)cn3)CC1)C2` [Compound 302], for which the IC50 worked out at 5 nM in assay [1] (Homo sapiens, MIA PaCa-2, 2 h); 1 nM in assay [2] (setting [4]); 0.4 nM in assay [3].
As to `CNC(=O)C#Cc1ccc2c(c1)[C@@H](N)C1(CCN(c3ncc(Sc4ccnc(N)c4Cl)c4nccn34)CC1)C2` [Compound 172], the half-maximal inhibitory concentration (IC50) in assay [1] (Homo sapiens, MIA PaCa-2, 2 h) turned out to be 8 nM; in assay [2] (setting [4]), 9 nM; in assay [3], 1 nM.
Consider `COCC#Cc1cc(F)c2c(c1)[C@@H](N)C1(CCN(c3ncc(Sc4ccnc(C)n4)c4nccn34)CC1)C2` [Compound 175], for which the IC50 in assay [1] (Homo sapiens, MIA PaCa-2, 2 h) worked out at 122 nM; in assay [2] (setting [4]) it was 100 nM; in assay [3], 14 nM.
In the same order, the values of `CCNC(=O)C#Cc1ccc2c(c1)[C@@H](N)C1(CCN(c3ncc(Sc4ccnc(N)c4Cl)nn3)CC1)C2` [Compound 249] are 31 nM, 19 nM and 1 nM.
Regarding `COC(=O)C#Cc1ccc2c(c1)[C@@H](N)C1(CCN(c3cnc(Sc4ccnc(N)c4Cl)cn3)CC1)C2` [Compound 300], the IC50 in assay [1] (Homo sapiens, MIA PaCa-2, 2 h) was 13 nM; in assay [2] (setting [4]) it was 16 nM; in assay [3], 1 nM.
Take `CCNC(=O)C#Cc1ccc2c(c1)[C@@H](N)C1(CCN(c3cnc(Sc4cc(N)nc(Cl)c4Cl)c(N)n3)CC1)C2` [Compound 255]: the IC50 turned out to be 8 nM in assay [1] (Homo sapiens, MIA PaCa-2, 2 h); 3 nM in assay [2] (setting [4]); 3 nM in assay [3].
As to `C#Cc1ccc2c(c1)[C@@H](N)C1(CCN(c3nc(C)n(-c4cccc(Cl)c4Cl)c(=O)c3F)CC1)C2` [Compound 165], the IC50 in assay [1] (Homo sapiens, MIA PaCa-2, 2 h) stood at 39 nM; in assay [2] (setting [4]) it was 71 nM; in assay [3] it was 6 nM.
Take `C#Cc1ccc2c(c1)[C@@H](N)C1(CCN(c3cc(=O)n(-c4ccc(C#N)c(Cl)c4Cl)c(C)n3)CC1)C2` (atropisomer, axis not shown) [Compound 193]: the IC50 in assay [1] (2 hours) turned out to be 24 nM; in assay [2], 90 nM; in assay [3], 1 nM.
On to `CCNC(=O)C#Cc1ccc2c(c1)[C@@H](N)C1(CCN(c3cnc(Sc4ccnc(N)c4Cl)cn3)CC1)O2` [Compound 293], for which the IC50 in assay [1] (Homo sapiens, MIA PaCa-2, 2 h) came out at 5 nM; in assay [2] (setting [4]), 0.9 nM; in assay [3], 1 nM.
For `CC#Cc1ccc2c(c1)[C@@H](N)C1(CCN(c3cc(=O)n(-c4ccc(F)c(Cl)c4Cl)c(C)n3)CC1)C2` (atropisomer, axis not shown) [Compound 221], the half-maximal inhibitory concentration (IC50) in assay [1] (2 hours) amounted to 15 nM; in assay [2] (setting [4]), 63 nM; in assay [3] it was 1 nM.
Turning to `COCC#Cc1cc(F)c2c(c1)[C@@H](N)C1(CCN(c3ncc(Sc4ccnc(N)n4)c4nccn34)CC1)C2` [Compound 171], the IC50 in assay [1] (Homo sapiens, MIA PaCa-2, 2 h) stood at 38 nM; in assay [2] (setting [4]), 39 nM; in assay [3], 6 nM.
Regarding `CCNC(=O)C#Cc1ccc2c(c1)[C@@H](N)C1(CCN(c3cnc(Sc4cccnc4C(F)(F)F)c(N)n3)CC1)C2` [Compound 235], the IC50 amounted to 9 nM in assay [1] (Homo sapiens, MIA PaCa-2, 2 h); 0.9 nM in assay [2] (setting [4]); 1.7 nM in assay [3].
Consider `CNC(=O)C#Cc1ccc2c(c1)[C@@H](N)C1(CCN(c3ncc(Sc4ccnc(N)c4Cl)nc3C)CC1)C2` [Compound 232], for which the IC50 in assay [1] (Homo sapiens, MIA PaCa-2, 2 h) stood at 8 nM; in assay [2] (setting [4]) it was 0.9 nM; in assay [3], 2 nM.
For the compound `COCC#Cc1ccc2c(c1)[C@@H](N)C1(CCN(c3ncc(Sc4ccnc(N)c4Cl)c4ncnn34)CC1)C2` [Compound 148], the IC50 in assay [1] (Homo sapiens, MIA PaCa-2, 2 h) is 13 nM; in assay [2] (setting [4]), 47 nM; in assay [3] it was 4 nM.
For `CNC(=O)C#Cc1ccc2c(c1)[C@@H](N)C1(CCN(c3cnc(Sc4ccnc(N)c4F)c(N)n3)CC1)C2` [Compound 264], the IC50 in assay [1] (Homo sapiens, MIA PaCa-2, 2 h) worked out at 2 nM; in assay [2] (setting [4]), 0.4 nM; in assay [3], 0.6 nM.
As to `C#Cc1ccc2c(c1)[C@@H](N)C1(CCN(c3ncc(Sc4ccnc(N)c4Cl)c(=O)n3C)CC1)O2` [Compound 295], the IC50 worked out at 22 nM in assay [1] (Homo sapiens, MIA PaCa-2, 2 h); 4 nM in assay [2] (setting [4]); 2 nM in assay [3].
In the same order, the values of `CCNC(=O)C#Cc1ccc2c(c1)[C@@H](N)C1(CCN(c3cnc(Sc4ccnc(N)c4Cl)c(N)n3)CC1)C2` [Compound 226] are 2 nM, 0.4 nM and 1 nM.
With `CNC(=O)C#Cc1ccc2c(c1)[C@@H](N)C1(CCN(c3cnc(Sc4cccnc4C(F)(F)F)c(N)n3)CC1)C2` [Compound 236], the IC50 in assay [1] (Homo sapiens, MIA PaCa-2, 2 h) was found to be 3 nM; in assay [2] (setting [4]), 1 nM; in assay [3], 1.3 nM.
On to `CNC(=O)C#Cc1ccc2c(c1)[C@@H](N)C1(CCN(c3cnc(Sc4cc(N)nc(Cl)c4Cl)c(N)n3)CC1)C2` [Compound 253], for which the IC50 stood at 10 nM in assay [1] (Homo sapiens, MIA PaCa-2, 2 h); 2 nM in assay [2] (setting [4]); 1 nM in assay [3].
Turning to `CNC(=O)C#Cc1ccc2c(c1)[C@@H](N)C1(CCN(c3cnc(Sc4cc(N)nc(Cl)c4Cl)cn3)CC1)C2` [Compound 254], the half-maximal inhibitory concentration (IC50) in assay [1] (Homo sapiens, MIA PaCa-2, 2 h) is 11 nM; in assay [2] (setting [4]), 10 nM; in assay [3], 3 nM.
With `CNC(=O)C#Cc1ccc2c(c1)[C@@H](N)C1(CCN(c3nc(N)c(Sc4ccnc(OC)c4Cl)nc3C)CC1)C2` [Compound 188], the IC50 in assay [1] (Homo sapiens, MIA PaCa-2, 2 h) was 14 nM; in assay [2] (setting [4]), 47 nM; in assay [3] it was 5 nM.
In the case of `CCNC(=O)C#Cc1ccc2c(c1)[C@@H](N)C1(CCN(c3cnc(Sc4cccnc4Cl)c(N)n3)CC1)C2` [Compound 238], the 50% inhibitory concentration (IC50) in assay [1] (Homo sapiens, MIA PaCa-2, 2 h) turned out to be 4 nM; in assay [2] (setting [4]), 1 nM; in assay [3], 1.3 nM.
As to `CCNC(=O)C#Cc1ccc2c(c1)[C@@H](N)C1(CCN(c3nc(N)c(Sc4ccnc(N)c4Cl)nc3C)CC1)C2` [Compound 219], the IC50 in assay [1] (Homo sapiens, MIA PaCa-2, 2 h) is 7 nM; in assay [2] (setting [4]), 6 nM; in assay [3] it was 3 nM.
As for `NC(=O)C#Cc1ccc2c(c1)[C@@H](N)C1(CCN(c3cnc(Sc4ccnc(N)c4Cl)cn3)CC1)C2` [Compound 270], the IC50 is 2 nM in assay [1] (Homo sapiens, MIA PaCa-2, 2 h); 0.6 nM in assay [2] (setting [4]); 0.4 nM in assay [3].
Take `CNC(=O)C#Cc1ccc2c(c1)[C@@H](N)C1(CCN(c3cc(=O)n(-c4ccc(F)c(OC)c4Cl)c(C)n3)CC1)C2` (atropisomer, axis not shown) [Compound 201]: the IC50 in assay [1] (2 hours) amounted to 6 nM; in assay [2] (setting [4]), 18 nM; in assay [3], 1 nM.
Turning to `CCNC(=O)C#Cc1ccc2c(c1)[C@@H](N)C1(CCN(c3cnc(Sc4cc(N)nc(Cl)c4Cl)cn3)CC1)C2` [Compound 256], the IC50 stood at 12 nM in assay [1] (Homo sapiens, MIA PaCa-2, 2 h); 6 nM in assay [2] (setting [4]); 4 nM in assay [3].
For the compound `CC#Cc1ccc2c(c1)[C@@H](N)C1(CCN(c3nc(N)c(Sc4ccnc(N)c4Cl)c(=O)n3C)CC1)C2` [Compound 289], the half-maximal inhibitory concentration (IC50) stood at 4 nM in assay [1] (Homo sapiens, MIA PaCa-2, 2 h); 2 nM in assay [2] (setting [4]); 2 nM in assay [3].
In the case of `CN(C)C(=O)C#Cc1ccc2c(c1)[C@@H](N)C1(CCN(c3ncc(Sc4ccnc(N)c4Cl)n4nccc34)CC1)C2` [Compound 196], the IC50 in assay [1] (Homo sapiens, MIA PaCa-2, 2 h) was 8 nM; in assay [2] (setting [4]) it was 21 nM; in assay [3] it was 3 nM.
As to `C#Cc1ccc2c(c1)[C@@H](N)C1(CCN(c3ncc(Sc4ccnc(N)c4Cl)n4ncnc34)CC1)C2` [Compound 179], the half-inhibitory concentration (IC50) in assay [1] (Homo sapiens, MIA PaCa-2, 2 h) was 112 nM; in assay [2] (setting [4]), 65 nM; in assay [3], 4 nM.
